Each structure is given as a SMILES string.

The text below walks through data of US6872706B2, “Glucopyranosyloxybenzylbenzene derivatives and medicinal compositions containing the same” (Kissei Pharmaceutical Co., Ltd., priority 2000, dated 2005).

The nature of data set [1]: Assay for the facilitatory effect on urinary glucose excretion. As to conditions: non-fasted male SD rats, oral, urine collected 24 hours. Format: in vivo. Here is the method:
Assay for the Facilitatory Effect on Urinary Glucose Excretion
As experimental animal, non-fasted SD rats (SLC. Inc., male, 8 weeks of age, 270-320 g) were used. A test compound was suspended in 0.5% sodium carboxymethylcellulose solution and 0.3, 1 and 3 mg/mL suspension were prepared. Adler the body weights of rats were measured, the test suspension was orally administered at the dose of 10 mL/kg (3, 10 and 30 mg/kg). For the control, just only 0.5% sodium carboxymethylcellulose solution was orally administered at the dose of 10 mL/kg. The oral administration was performed with gastric tube for rat and 2.5 mL syringe. The head count in one group was 5 or 6. Collection of urine was performed in metabolic cage after the oral administration was finished. The sampling time for collection of urine was 24 hours after the oral administration. After collection of urine was finished, the urine volume was recorded and the urinary glucose concentration was measured. The glucose concentration was measured with a kit for laboratory test: Glucose B-Test WAKO (Wako Pure Chemical Industries, Ltd.). The amount of urinary glucose excretion in 24 hours per 200 g of body weight was calculated from urine volume, urinary glucose concentration and body weight.

A further data set can be described thus: Acute toxicity test. Type of data set: in vivo. As to conditions: male ICR mice, oral 600 mg/kg, until 24 hours after the administration, 5 animals in each group. On the procedure:
Four weeks old male ICR mice (CLEA JAPAN, INC. 22-28 g, 5 animals in each group) were fasted for 4 hours, and 60 mg/mL of a suspension of a test compound in 0.5% sodium carboxymethylcellulose solution was orally administered at the dose of 10 mL/kg(600 mg/kg).

The target of another data set is T1, human SGLT2 (Homo sapiens, UniProt P31639, I433V).
T1 construct: expressed in transfected cells; host or cells: COS-7 cells (RIKEN CELL BANK RCB0539), transient, electroporation
T1 sequence (P31639 1-672 I433V): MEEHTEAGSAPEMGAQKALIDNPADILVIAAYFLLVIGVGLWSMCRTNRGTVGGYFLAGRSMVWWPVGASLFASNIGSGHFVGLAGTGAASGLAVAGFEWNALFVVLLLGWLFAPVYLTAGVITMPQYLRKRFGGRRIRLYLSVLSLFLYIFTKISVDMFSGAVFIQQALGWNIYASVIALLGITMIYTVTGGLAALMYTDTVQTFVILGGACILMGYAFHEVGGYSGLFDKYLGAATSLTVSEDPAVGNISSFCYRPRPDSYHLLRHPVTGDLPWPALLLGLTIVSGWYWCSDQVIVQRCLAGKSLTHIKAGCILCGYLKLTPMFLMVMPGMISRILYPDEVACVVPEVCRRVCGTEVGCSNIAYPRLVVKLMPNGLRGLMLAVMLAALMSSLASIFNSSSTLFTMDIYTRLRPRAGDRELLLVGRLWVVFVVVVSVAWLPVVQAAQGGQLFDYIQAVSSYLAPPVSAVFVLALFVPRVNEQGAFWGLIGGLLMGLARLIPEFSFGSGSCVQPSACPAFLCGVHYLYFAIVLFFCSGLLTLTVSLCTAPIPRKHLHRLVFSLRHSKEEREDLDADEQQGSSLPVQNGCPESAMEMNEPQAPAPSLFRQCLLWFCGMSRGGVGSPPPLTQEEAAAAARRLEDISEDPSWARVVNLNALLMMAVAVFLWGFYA
Put plainly: Assay for inhibitory effect on human SGLT2 activity (uptake of methyl-α-D-glucopyranoside in COS-7 cells expressing transiently human SGLT2). Format: cell-based. As to conditions: inhibition of methyl-α-D-(U-14C)glucopyranoside uptake, COS-7 cells expressing transiently human SGLT2, 37° C., 2 hours. On the procedure:
Assay for Inhibitory Effect on Human SGLT2 Activity
1) Construction of the Plasmid Vector Expressing Human SGLT2
Preparation of the cDNA library for PCR amplification was performed by reverse transcription of a total RNA deprived from human kidney (Ori gene) with oligo dT as the primer, using […] Preamplification System (Gibco-BRL: LIFE TECHNOLOGIES). […] The amplified DNA fragment was ligated into pCR-Blunt (Invitrogen), a vector for cloning, according to standard method of the kit. The competent cell, Escherichia coli HB101 (Toyobo), was transformed according to usual method and then selection of the transformants was performed on the LB agar medium containing 50 μg/mL of kanamycin. After the plasmid DNA was extracted and purified from the one of the transformants, amplifying of the DNA fragment coding for human SGLT2 was performed by the Pfu DNA Polymerase (Stratagene)-used PCR reaction, in which the following oligo nucleotides 0714F and 0715R, presented as Sequence Numbers 3 and 4 respectively, were used as the primers. The amplified DNA fragment was digested with restriction enzymes, Xho I and Hind III, and then purified with Wizard Purification System (Promega). This purified DNA fragment was inserted at the corresponding multi-cloning sites of pcDNA3.1 (−) Myc/His-B (Invitrogen), a vector for expressing of fusion protein. The competent cell, Escherichia coli HB101 (Toyobo), was transformed according to usual method and then selection of the transformant was performed on the LB agar medium containing 100 μg/mL of ampicillin. After the plasmid DNA was extracted and purified from this transformant, the base sequence of the DNA fragment inserted at the multi-cloning sites of pcDNA3.1 (−) Myc/His-B was analyzed. […] This plasmid vector expressing human SGLT2 in which the peptide presented as Sequence Number 5 is fused to the carboxyl terminal alanine residue was designated KL29.
2) Preparation of the Cells Expressing Transiently Human SGLT2
KL29, the plasmid coding human SGLT2, was transfected into COS-7 cells (RIKEN CELL BANK RCB0539) by electroporation. Electroporation was performed with GENE PULSER II (Bio-Rad Laboratories) under the condition: 0.290 kV, 975 μF, 2×10^6 cells of COS-7 cell and 20 μg of KL29 in 500 μL of OPTI-MEM I medium (Gibco-BRL: LIFE TECHNOLOGIES) in the 0.4 cm type cuvette. After the gene transfer, the cells were harvested by centrifugation and resuspended with OPTI-MEM I medium (1 mL/cuvette). To each well in 96-wells plate, 125 μL of this cell suspension was added. After overnight culture at 37° C. under 5% CO2, 125 μL of DMEM medium which is containing 10% of fetal bovine serum (Sanko Jyunyaku), 100 units/mL sodium penicillin G (Gibco-BRL: LIFE TECHNOLOGIES) and 100 μg/mL streptomycin sulfate (Gibco-BRL: LIFE TECHNOLOGIES) was added to each well. After a culture until the following day, these cells were used for the measurement of the inhibitory activity against the uptake of methyl-α-D-glucopyranoside.
3) Measurement of the Inhibitory Activity Against the Uptake of Methyl-α-D-Glucopyranoside
After a test compound was dissolved in dimethyl sulfoxide and diluted with the uptake buffer (a pH 7.4 buffer containing 140 mM sodium chloride, 2 mM potassium chloride, 1 mM calcium chloride, 1 mM magnesium chloride, 5 mM methyl-α-D-glucopyranoside, 10 mM 2-[4-(2-hydroxyethyl)-1-piperazinyl]ethane sulfonic acid and 5 mM tris (hydroxymethyl) aminomethane), each diluent was used as test sample for measurement of the inhibitory activity.

With `CCOC(=O)OC[C@H]1O[C@@H](Oc2ccccc2Cc2ccc(OC)cc2)[C@H](O)[C@@H](O)[C@@H]1O` [Example 1, 2-(4-Methoxybenzyl)phenyl 6-O-ethoxycarbonyl-β-D-glucopyranoside], the results for the “Amount of Urinary Glucose Excretion” value in data set [1] (dose 3 mg/kg), in data set [1] (dose 10 mg/kg) and in data set [1] (dose 30 mg/kg) were 52 mg/24 hours · 200 g body weight, 239 mg/24 hours · 200 g body weight and 513 mg/24 hours · 200 g body weight, respectively. Moreover, in the data set “Acute toxicity test”, the Death number is recorded as 0/5. One may read the IC50 as the concentration at which inhibition is half-maximal. The low end stands for greater potency, the high end for weaker potency. As to `COc1ccc(Cc2ccccc2O[C@@H]2O[C@H](CO)[C@@H](O)[C@H](O)[C@H]2O)cc1` [Reference Example 11, 2-(4-Methoxybenzyl)phenyl β-D-glucopyranoside], on human SGLT2, the IC50 amounted to 0.35 µM. On to `CCc1ccc(Cc2ccccc2O[C@@H]2O[C@H](CO)[C@@H](O)[C@H](O)[C@H]2O)cc1` [Reference Example 13, 2-(4-Ethylbenzyl)phenyl β-D-glucopyranoside], for which the midpoint of inhibition against human SGLT2, the IC50, lay at 0.14 µM.

Compound `CC(C)Cc1ccc(Cc2ccccc2O[C@@H]2O[C@H](CO)[C@@H](O)[C@H](O)[C@H]2O)cc1` [Reference Example 14, 2-(4-Isobutylbenzyl)phenyl β-D-glucopyranoside] registered an IC50 on human SGLT2 of 0.5 µM.

As for `CCOc1ccc(Cc2ccccc2O[C@@H]2O[C@H](CO)[C@@H](O)[C@H](O)[C@H]2O)cc1` [Reference Example 15, 2-(4-Ethoxybenzyl)phenyl β-D-glucopyranoside], the concentration for half-maximal inhibition (IC50) on human SGLT2 was determined as 0.33 µM.

At human SGLT2, `CC(C)Oc1ccc(Cc2ccccc2O[C@@H]2O[C@H](CO)[C@@H](O)[C@H](O)[C@H]2O)cc1` [Reference Example 16, 2-(4-Isopropoxybenzy)phenyl β-D-Glucopyranoside] gave an IC50 of 0.37 µM. At human SGLT2, `CCSc1ccc(Cc2ccccc2O[C@@H]2O[C@H](CO)[C@@H](O)[C@H](O)[C@H]2O)cc1` [Reference Example 17, 2-(4-Ethylthiobenzyl)phenyl β-D-glucopyranoside] displayed an IC50 of 0.11 µM.
